In PMC12251549, “Engineering a Radiohybrid PSMA Ligand with an Albumin-Binding Moiety and Pharmacokinetic Modulation via an Albumin-Binding Competitor for Radiotheranostics” (Molecules, 2025):

Legend:
[1] = Biodistribution after intravenous co-injection of [125I]5 and [67Ga]Ga-PSMA-617 (Table S1); format: in vivo, normal mice (ddY); conditions: normal mice; for Biodistribution of radioactivity: Blood / Biodistribution of radioactivity: Bone / Biodistribution of radioactivity: Brain / Biodistribution of radioactivity: Heart / Biodistribution of radioactivity: Kidney / Biodistribution of radioactivity: L. Intestine / Biodistribution of radioactivity: Liver / Biodistribution of radioactivity: Lung / Biodistribution of radioactivity: Muscle / Biodistribution of radioactivity: Neck / Biodistribution of radioactivity: Pancreas / Biodistribution of radioactivity: S. Intestine / Biodistribution of radioactivity: Spleen / Biodistribution of radioactivity: Stomach: i.v.
Method: [^67Ga]Ga-PSMA-617 (37 kBq) and [^125I]5 (37 kBq) or [^125I]5 (37 kBq) and [^211At]6 (37 kBq) were intravenously co-administered into three or four normal mice at each timepoint (6 weeks male ddY mice, 28–30 g, Japan SLC, Inc., Hamamatsu, Japan). Mice were sacrificed at 10 min, 1 h, 4 h, and 24 h ([^67Ga]Ga-PSMA-617 and [^125I]5) or at 10 min, 1 h, 4 h, 12 h, and 24 h ([^125I]5 and [^211At]6) postinjection of the radiolabeled compounds. Tissues of interest were removed and weighed, and the radioactivity of ^67Ga and ^125I and ^125I and ^211At were determined with an auto well gamma counter (ARC-8001) and corrected for background radiation as described in the Cellular Uptake Experiments Section. To determine the amount and routes of the radioactivity excreted from the body for 24 h after the injection of radiolabeled compounds, mice were housed in metabolic cages (METABOLICA, SUGIYAMA-GEN Co., Ltd., Tokyo, Japan). Data are shown as the percentage of injected dose per gram of tissues (%ID/g) or %ID.

[2] = Biodistribution with post-administration of albumin-binding competitor IPBA; format: in vivo, normal mice (ddY); conditions: normal mice, IPBA at 1 h postinjection, 10 molar equivalent of blood albumin; except in the kidney
Method: To evaluate the effects of an albumin-binding competitor (sodium salt of IPBA) in normal mice, [^125I]5 and [^211At]6 were intravenously co-administered. At 1 h postinjection of the radiolabeled compounds, IPBA (3.4 mg, 11 µmol) dissolved in saline at a 10 molar equivalent of blood albumin was administered. Mice were sacrificed at 65 min, 70 min, 2 h, 4 h, 12 h, and 24 h postinjection of [^125I]5 and [^211At]6. Tissues of interest were treated, and the radioactivity was measured in the same manner as above. Data are also shown as %ID/g or %ID.

[3] = test system: PSMA-expressing LNCaP cells; assay: Cellular uptake and internalization in LNCaP cells, blocking with 2-PMPA; format: cell-based; conditions: 2-PMPA 100 µM
Method: Cellular uptake experiments were performed according to a previous report with slight modifications. LNCaP cells expressing PSMA were cultured in RPMI 1640 medium containing 10% fetal bovine serum (FBS) and 1% penicillin–streptomycin on 6-well culture plates (containing 5 × 10^5 cells/well) for 24 h in a humidified atmosphere (5% CO2) incubator at 37 °C. After removing the medium and washing with phosphate-buffered saline (PBS) (−) once, a mixed solution of [^125I]5 and [^211At]6, [^125I]5 and [^67Ga]Ga-PSMA-617, and [^125I]5 and [^67Ga]5 in 1.0 mL of medium without FBS was added (3.7 kBq/each tracer/well). The final concentrations of the radioligands for [^125I]5, [^211At]6, and [^67Ga]5 were 45.5 pM, 0.2 pM, and 2.5 pM, respectively. These solutions containing radioligands were diluted in saline containing 0.05% (w/v) bovine serum albumin (BSA) to prevent adsorption to tubes or plates and further diluted with medium to 0.00125% as the final BSA concentration. After incubation for 10, 60, and 120 min, the medium from each well was removed, and the cells were washed twice with ice-cold PBS (−); the surface of the cells was washed twice with ice-cold 0.2 M glycine buffer (pH 3.0). The cells were lysed using a 1 M NaOH aqueous solution. The radioactivity of ^67Ga,^125I and ^211At in the 1 M NaOH aqueous solution was determined and defined as the internalized radioligand fraction using an auto well gamma counter (ARC-8001, Hitachi, Ltd., Tokyo, Japan) according to a previous paper. The radioactivity was determined with an auto well gamma counter and corrected for background radiation and physical decay during counting. A window from 16 to 69 keV was used for counting ^125I, and a window from 70 to 120 keV was used for counting ^211At. Correlation factors to eliminate any crossover of ^125I activity in the ^211At counts were determined by measuring the ^125I standard in each window. More than one week after the experiments, the radioactivity counts of ^125I were measured after the decay of ^211At. The protein amount in cells was quantified using a BCA Protein Assay Kit (Nacalai Tesque, Kyoto, Japan) according to the manufacturer’s protocol. All data were expressed as percent dose per milligram protein (%dose/mg protein). In blocking experiments, a selective inhibitor of the PSMA, (2S)-2-(phosphonomethyl)pentanedioic acid (2-PMPA) (final concentration 100 µM), was added to each well with tracers. After incubation for 10, 60, and 120 min, radioactivity and protein concentration were determined in the same manner as the experiment without the blocking agent.

O=C([O-])CN1CCN(CC(=O)[O-])CCN(CC(=O)NC(CCCCNC(=O)CCCc2ccc([125I])cc2)C(=O)NCC2CCC(C(=O)NC(Cc3ccc4ccccc4c3)C(=O)NCCCCC(NC(=O)NC(CCC(=O)O)C(=O)O)C(=O)O)CC2)CCN(CC(=O)[O-])CC1.[Ga+3] (stereo not shown) [[^125I]5]
Excretion in feces ([1]; 24 h postinjection): 2.3 ± 0.3 %ID | Excretion in urine ([1]; 24 h postinjection): 10.3 ± 0.7 %ID | Blood retention ([1]; compared with [67Ga]Ga-PSMA-617): significantly prolonged blood retention | Biodistribution of radioactivity: Blood ([1]; 10 min after injection): 26.76 (0.56) % injected dose per gram | Biodistribution of radioactivity: Bone ([1]; 10 min after injection): 2.56 (0.45) % injected dose per gram | Biodistribution of radioactivity: Brain ([1]; 10 min after injection): 0.66 (0.14) % injected dose per gram | Biodistribution of radioactivity: Heart ([1]; 10 min after injection): 4.87 (0.63) % injected dose per gram | Biodistribution of radioactivity: Kidney ([1]; 10 min after injection): 10.29 (0.97) % injected dose per gram | Biodistribution of radioactivity: L. Intestine ([1]; 10 min after injection): 1.10 (0.07) % injected dose per gram | Biodistribution of radioactivity: Liver ([1]; 10 min after injection): 3.89 (0.34) % injected dose per gram | Biodistribution of radioactivity: Lung ([1]; 10 min after injection): 10.56 (0.97) % injected dose per gram | Biodistribution of radioactivity: Muscle ([1]; 10 min after injection): 0.89 (0.02) % injected dose per gram | Biodistribution of radioactivity: Neck ([1]; 10 min after injection): 0.04 (0.01) % injected dose | Biodistribution of radioactivity: Pancreas ([1]; 10 min after injection): 3.05 (0.20) % injected dose per gram | Biodistribution of radioactivity: S. Intestine ([1]; 10 min after injection): 2.11 (0.10) % injected dose per gram | Biodistribution of radioactivity: Spleen ([1]; 10 min after injection): 3.22 (0.38) % injected dose per gram | Biodistribution of radioactivity: Stomach ([1]; 10 min after injection): 0.78 (0.10) % injected dose | Biodistribution of radioactivity: Blood ([1]; 1 h after injection): 16.99 (1.80) % injected dose per gram | Biodistribution of radioactivity: Bone ([1]; 1 h after injection): 2.18 (0.26) % injected dose per gram | Biodistribution of radioactivity: Brain ([1]; 1 h after injection): 0.44 (0.19) % injected dose per gram | Biodistribution of radioactivity: Heart ([1]; 1 h after injection): 4.00 (0.35) % injected dose per gram | Biodistribution of radioactivity: Kidney ([1]; 1 h after injection): 6.22 (0.27) % injected dose per gram | Biodistribution of radioactivity: L. Intestine ([1]; 1 h after injection): 1.16 (0.18) % injected dose per gram | Biodistribution of radioactivity: Liver ([1]; 1 h after injection): 2.67 (0.11) % injected dose per gram | Biodistribution of radioactivity: Lung ([1]; 1 h after injection): 9.59 (2.25) % injected dose per gram | Biodistribution of radioactivity: Muscle ([1]; 1 h after injection): 1.06 (0.06) % injected dose per gram | Biodistribution of radioactivity: Neck ([1]; 1 h after injection): 0.03 (0.01) % injected dose | Biodistribution of radioactivity: Pancreas ([1]; 1 h after injection): 2.30 (0.22) % injected dose per gram | Biodistribution of radioactivity: S. Intestine ([1]; 1 h after injection): 2.02 (0.21) % injected dose per gram | Biodistribution of radioactivity: Spleen ([1]; 1 h after injection): 2.01 (0.29) % injected dose per gram | Biodistribution of radioactivity: Stomach ([1]; 1 h after injection): 0.75 (0.08) % injected dose | Biodistribution of radioactivity: Blood ([1]; 4 h after injection): 14.52 (0.22) % injected dose per gram | Biodistribution of radioactivity: Bone ([1]; 4 h after injection): 1.57 (0.64) % injected dose per gram | Biodistribution of radioactivity: Brain ([1]; 4 h after injection): 0.30 (0.03) % injected dose per gram | Biodistribution of radioactivity: Heart ([1]; 4 h after injection): 3.97 (0.22) % injected dose per gram | Biodistribution of radioactivity: Kidney ([1]; 4 h after injection): 6.93 (0.24) % injected dose per gram | Biodistribution of radioactivity: L. Intestine ([1]; 4 h after injection): 2.03 (0.07) % injected dose per gram | Biodistribution of radioactivity: Liver ([1]; 4 h after injection): 2.76 (0.11) % injected dose per gram | Biodistribution of radioactivity: Lung ([1]; 4 h after injection): 8.37 (0.62) % injected dose per gram | Biodistribution of radioactivity: Muscle ([1]; 4 h after injection): 1.41 (0.07) % injected dose per gram | Biodistribution of radioactivity: Neck ([1]; 4 h after injection): 0.03 (0.00) % injected dose | Biodistribution of radioactivity: Pancreas ([1]; 4 h after injection): 2.33 (0.13) % injected dose per gram | Biodistribution of radioactivity: S. Intestine ([1]; 4 h after injection): 1.99 (0.14) % injected dose per gram | Biodistribution of radioactivity: Spleen ([1]; 4 h after injection): 1.59 (0.35) % injected dose per gram | Biodistribution of radioactivity: Stomach ([1]; 4 h after injection): 0.69 (0.08) % injected dose | Biodistribution of radioactivity: Blood ([1]; 24 h after injection): 9.84 (0.85) % injected dose per gram | Biodistribution of radioactivity: Bone ([1]; 24 h after injection): 1.57 (0.22) % injected dose per gram | Biodistribution of radioactivity: Brain ([1]; 24 h after injection): 0.30 (0.03) % injected dose per gram | Biodistribution of radioactivity: Heart ([1]; 24 h after injection): 2.85 (0.36) % injected dose per gram | Biodistribution of radioactivity: Kidney ([1]; 24 h after injection): 7.37 (0.99) % injected dose per gram | Biodistribution of radioactivity: L. Intestine ([1]; 24 h after injection): 1.15 (0.35) % injected dose per gram | Biodistribution of radioactivity: Liver ([1]; 24 h after injection): 1.59 (0.34) % injected dose per gram | Biodistribution of radioactivity: Lung ([1]; 24 h after injection): 6.18 (0.83) % injected dose per gram | Biodistribution of radioactivity: Muscle ([1]; 24 h after injection): 1.08 (0.11) % injected dose per gram | Biodistribution of radioactivity: Neck ([1]; 24 h after injection): 0.02 (0.00) % injected dose | Biodistribution of radioactivity: Pancreas ([1]; 24 h after injection): 1.66 (0.46) % injected dose per gram | Biodistribution of radioactivity: S. Intestine ([1]; 24 h after injection): 1.11 (0.31) % injected dose per gram | Biodistribution of radioactivity: Spleen ([1]; 24 h after injection): 1.62 (0.16) % injected dose per gram | Biodistribution of radioactivity: Stomach ([1]; 24 h after injection): 0.67 (0.13) % injected dose | Effect of IPBA administration on radioactivity levels in tissues [2]: significantly decreased | Effect of excess 2-PMPA on cellular uptake [3]: significantly reduced
